From ChEMBL document CHEMBL3132810, “Novel benzofuranchromone and coumarin derivatives: synthesis and biological activity in K562 human leukemia cells” (Medchemcomm, 2013)
One block for each compound: values may come before it. Activity calls are given as the source filed them. The rule behind the calls is not given here.

How the values were obtained:
[1] = test system: K562; experiment: Anticancer activity against human K562 cells assessed as growth inhibition; format: functional, cell-based
[2] = test system: K562; experiment: Induction of apoptosis in human K562 cells at 50 uM after 48 hrs; format: functional
[3] = test system: K562; experiment: Cell cycle arrest in human K562 cells assessed as slight accumulation at G1 phase at 50 uM after 48 hrs by propidium iodide staining-based FACS -Calibur flow cytometry; format: functional
[4] = test system: K562; experiment: Cell cycle arrest in human K562 cells assessed as accumulation at G2 phase at 50 uM after 48 hrs by propidium iodide staining-based FACS -Calibur flow cytometry; format: functional
[5] = test system: K562; experiment: Cell cycle arrest in human K562 cells assessed as accumulation at S phase at 50 uM after 48 hrs by propidium iodide staining-based FACS -Calibur flow cytometry; format: functional
[6] = test system: K562; experiment: Induction of apoptosis in human K562 cells at 100 uM after 72 hrs; format: functional, cell-based
[7] = test system: K562; experiment: Induction of apoptosis in human K562 cells at 50 uM after 72 hrs; format: functional, cell-based

IC50 [1]: 50 µM
Compound: COc1ccc(/C=C2\Oc3c(cc(OC)c(OC)c3OC)C2=O)cc1O

Compound: Cc1ccc2c(c1)O/C(=C\c1coc3ccc(C)cc3c1=O)C2=O
Activity [2]: 24%
Activity [3]: 72%

Compound: COc1cccc2occ(/C=C3\Oc4cc5ccccc5cc4C3=O)c(=O)c12
Activity [2]: 17%
Activity [3]: Active

Compound: COc1ccc2c(/C=C3\Oc4cc5ccccc5cc4C3=O)cc(=O)oc2c1
Activity [2]: 24%
Activity [4]: 46%

Compound: Cc1ccc2c(c1)O/C(=C\c1coc3ccccc3c1=O)C2=O
Activity [5]: Active

Compound: Cc1ccc2c(c1)O/C(=C\c1coc3ccc(Cl)cc3c1=O)C2=O
Activity [5]: Active

Compound: COc1ccc2c(=O)c(/C=C3\Oc4ccccc4C3=O)coc2c1
Activity [2]: 17%

Compound: Cc1ccc2c(c1)O/C(=C\c1coc3ccc(F)cc3c1=O)C2=O
Activity [5]: Active

IC50 [1]: 40 µM
Compound: COc1ccc(-c2cc(=O)c3cc(OC)c(OC)c(OC)c3o2)cc1O

Compound: Cc1ccc2occ(/C=C3\Oc4ccccc4C3=O)c(=O)c2c1
Activity [5]: Active

Compound: COc1ccc2c(C=O)cc(=O)oc2c1
Activity [6]: Active
Activity [7]: Active

Compound: Cc1cc2occ(/C=C3\Oc4cc5ccccc5cc4C3=O)c(=O)c2cc1C
Activity [2]: 17%
Activity [3]: Active

Compound: Cc1ccc2c(c1)O/C(=C\c1coc3cc(Cl)ccc3c1=O)C2=O
Activity [5]: Active

Compound: O=C1/C(=C/c2coc3ccccc3c2=O)Oc2ccccc21
Activity [2]: 17%

Compound: O=C1/C(=C/c2coc3ccccc3c2=O)Oc2cc3ccccc3cc21
Activity [2]: 17%

Compound: O=C1/C(=C/c2coc3ccc(F)cc3c2=O)Oc2ccccc21
Activity [5]: Active

Compound: O=C1/C(=C/c2coc3ccc(Cl)cc3c2=O)Oc2ccccc21
Activity [5]: 63%

Compound: COc1ccc2c(/C=C3\Oc4cc(C)ccc4C3=O)cc(=O)oc2c1
Activity [2]: 24%
Activity [3]: Active
Activity [6]: Active
Activity [7]: Active

Compound: O=C1/C(=C/c2coc3ccc(Cl)cc3c2=O)Oc2cc3ccccc3cc21
Activity [2]: 17%

Compound: COc1ccc(/C=C2\Oc3cc(C)ccc3C2=O)cc1
Activity [6]: Active
Activity [7]: Active
